We go through 2 compounds from US4650804A, “Quinolizinone compounds and pharmaceutical composition comprising the same, useful as anti-ulcerative and anti-allergic agents” (Fujisawa Pharmaceutical Co., Ltd., priority 1984, dated 1987).

Where “and” joins values, the source holds several entries; their conditions need not be identical. Equal values may be shown once.

The nature of assay [1]: Inhibition on stress ulcer. Type of assay: in vivo, Sprague-Dawley rats. To be noted: 32 mg/kg, oral, 22° C. water bath, 7 hours; for Ulcer index Mean ± S. E. / Ulcer index (individual animals): just before immobilization; for Ulcer index Mean ± S. E.: 5 animals; for Ulcer index (individual animals): single animals No. 1-5; for Inh. %: ulcer index inhibition vs control. As to the method:
(A) Inhibition on stress ulcer
Sprague-Dawley rats weighing about 200 g were used. Each animal was immobilized in a small cage and put in a water bath allowing to respire. The temperature of the water bath kept at 22° C. The test compound .circle.A and .circle.B were administered orally just before the immobilization. Seven hours later, the animals were sacrificed and their stomachs were removed. The stomach was then fixed with 2% formalin. The area of ulcers was measured for each animal. The mean area (mm^2) in the test animals was compared with that in the control animals.

Assay [2] in a line: Effect on passive cutaneous anaphylaxis (PCA). Type of assay: in vivo, female Sprague-Dawley rats. To be noted: intravenously with the antigen. As to the method: (B) Effect on passive cutaneous anaphylaxis (pCA).
Recipient animals for PCA reactions were female Sprague-Dawley rats, 7 weeks old, 180 g-200 g (Nihon Kurea). Each experiment included 5 observations.
Five times crystallized ovalbumin (OVA) (Sigma Lot, 31F-8061) was used as antigen.
Female BDFl mice, 7 weeks old (Nihon Kurea), were given a primary injection (left foot pad, s.c.) of 100 mcg OVA in 0.05 ml saline and after 20 days a booster injection by the same route. Blood was collected 28 days after the primary injection and the sera were stored at -80° C.
The animals were shared with an electric clipper in advance and prepared for Passive Cutaneous Anaphylaxis (PCA) by injecting 0.05 ml of mouse antiserum dilutions (1/16, 1/32) in each side of the dorsal skin.
They were then challenged 48 hours later with an intravenous injection of 1 ml of 0.5% Evans Blue containing 5 mg OVA. Fifty minutes later, they were killed and the lesions (diameter) measured.
A minimal skin response was one with a 5 mm or greater diameter blue spot measured on the dermal side of reflected skin. Drug activity was estimated using the following formula; [formula]
Drugs were suspended in 0.1% methyl cellulose/saline and given intravenously with the antigen.

Consider `O=C(Nc1nn[nH]n1)c1cc(-c2ccccc2)c2ccccn2c1=O` [Compound .circle.B, N-[5-(1H-Tetrazolyl)]-1-phenyl-4H-quinolizin-4-one-3-carboxamide], for which, in assay [1], the “Ulcer index Mean ± S. E.” value is listed as 8.4 ± 1.9 mm^2; the “Ulcer index (individual animals)” value is 10 mm^2 and 11 mm^2 and 3 mm^2 and 5 mm^2; the Inh. % is 83.7%.

For `O=C(Nc1nn[nH]n1)c1ccc2ccccn2c1=O` [Compound .circle.A, N-[5-(1H-Tetrazolyl)]-4H-quinolizin-4-one-3-carboxamide], the “Inhibition (%)” value in assay [2] (1 mg/kg, Antiserum concentration 1/16) stood at 97.2%; in assay [2] (1 mg/kg, Antiserum concentration 1/32), 100%; in assay [2] (10 mg/kg, Antiserum concentration 1/16), 94.5%; in assay [2] (10 mg/kg, Antiserum concentration 1/32), 100%. The “Ulcer index Mean ± S. E.” value in assay [1] is 6.2 ± 3.0 mm^2. In addition, the “Ulcer index (individual animals)” value in assay [1] was 18 mm^2 and 5 mm^2 and 3 mm^2 and 4 mm^2 and 1 mm^2. Moreover, the Inh. % in assay [1] was determined as 67.7%.
